pIC50: −log10 of the molar value. Positions of bridges follow the written chain, without caps; N, C: chain ends. Non-standard residues stand in square brackets, D forms with d. Residues, ends and D or L forms follow the SMILES beside them. NMeF = CN[C@@H](Cc1ccccc1)C(=O)O

Assay [1] addresses T1, S. aureus-derived recombinant SrtA (Staphylococcus aureus, UniProt Q2FV99).
T1 construct: made in house; host or cells: E. coli
In words: biochemical.

Assay [2] concerns the target isocitrate lyase (ICL) derived from C. albicans. Details: method as in PMID 31167388. To be noted: previously reported; cited from earlier work.
The target of assay [3] is T2, recombinant ICL from C. albicans (Candida albicans, UniProt Q9P8Q7).
T2 construct: made in house
In words: ICL inhibition assay. The format is biochemical. To be noted: 37 °C, 30 min. Here is the method:
The recombinant ICL from C. albicans was prepared and the inhibitory activity of the test compounds against ICL was determined by previously documented procedures. […] The increase in intensity of absorbance resulting from the formation of glyoxylate phenylhydrazone was observed using an UVmini-1240 spectrophotometer (SHIMADZU, Tokyo, Japan) at a wavelength of 324 nm. A known ICL inhibitor, 3-nitropropionic acid, was used as a reference control.

For the next assay, the system named is Bacillus cereus. The arrangement: method as in PMID 25001296. To be noted: cited from earlier work.
For assay [4], the system named is Staphylococcus epidermidis. The arrangement: method as in PMID 25001296. Particulars: cited from earlier work.

T1 sequence (Q2FV99 whole entry): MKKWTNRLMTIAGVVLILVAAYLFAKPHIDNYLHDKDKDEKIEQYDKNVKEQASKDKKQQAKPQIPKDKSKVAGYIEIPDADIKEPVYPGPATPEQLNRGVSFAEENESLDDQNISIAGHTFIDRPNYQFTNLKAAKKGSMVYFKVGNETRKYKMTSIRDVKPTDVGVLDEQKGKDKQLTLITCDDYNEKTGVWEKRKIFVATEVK
T2 sequence (Q9P8Q7 whole entry): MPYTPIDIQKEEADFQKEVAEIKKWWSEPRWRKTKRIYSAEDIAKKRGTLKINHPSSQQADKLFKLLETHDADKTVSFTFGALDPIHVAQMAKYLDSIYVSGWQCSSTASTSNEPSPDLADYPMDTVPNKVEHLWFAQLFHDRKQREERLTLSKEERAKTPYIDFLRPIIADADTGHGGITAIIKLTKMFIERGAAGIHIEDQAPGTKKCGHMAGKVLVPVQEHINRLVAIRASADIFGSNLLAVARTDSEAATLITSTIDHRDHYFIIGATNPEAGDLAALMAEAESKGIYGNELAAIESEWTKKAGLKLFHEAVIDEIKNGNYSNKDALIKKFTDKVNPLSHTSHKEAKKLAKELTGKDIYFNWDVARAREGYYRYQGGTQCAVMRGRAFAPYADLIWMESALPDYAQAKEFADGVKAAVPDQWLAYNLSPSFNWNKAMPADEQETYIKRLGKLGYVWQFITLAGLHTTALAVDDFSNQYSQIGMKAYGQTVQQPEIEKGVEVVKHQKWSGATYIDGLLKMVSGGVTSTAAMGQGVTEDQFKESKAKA

Turning to `CC(=O)N[C@@H]1C(=O)N[C@H](C(C)C)C(=O)N2CCC[C@H]2C(=O)N[C@@H](Cc2ccc(O)cc2)C(=O)N(C)[C@@H](Cc2ccccc2)C(=O)N[C@@H](C)C(=O)O[C@@H]1C` [Compound 3, FJ120DPA] (Ac-T[dV]PY[NMeF]A; ester 1-C), the pIC50 in assay [1] was 3.88.

In the case of `COc1ccc2cc3[n+](cc2c1OC)CCc1cc2c(cc1-3)OCO2` [Berberine chloride], the pIC50 in assay [1] was 3.98.

For `CC(=O)N[C@H](C(=O)N[C@@H](C(=O)N1CCC[C@H]1C(=O)N[C@@H](Cc1ccc(O)cc1)C(=O)N(C)[C@@H](Cc1ccccc1)C(=O)N[C@@H](C)C(=O)O)C(C)C)[C@@H](C)O` [Compound 4, FJ120DPB] (Ac-T[dV]PY[NMeF]A-OH), the pIC50 in assay [1] was 4.11.

As to `CC(C)C[C@@H]1NC(=O)[C@@H]2CCCN2C(=O)[C@H](Cc2ccc(O)cc2)NC(=O)[C@H](Cc2ccccc2)N(C)C(=O)[C@H](C)NC1=O` [Compound 1, JG002CPA] (cyclo(A[NMeF]YPL)), the pIC50 in assay [1] is 4.15.

Turning to `CC(C)[C@@H]1NC(=O)[C@H](Cc2ccccc2)NC1=O` [cyclo(L-Phe-L-Val)], in assay [2], the pIC50 was 3.96.

Take `O=C(O)CC[N+](=O)[O-]` [3-Nitropropionic acid]: the pIC50 in assay [3] was 4.73.

Regarding asperpeptide A, the minimal inhibitory concentration (MIC) (in the assay with Bacillus cereus; in assay [4]) was 12.5 µM throughout.

With `CC(C)[C@@H]1NC(=O)[C@@H]2CCCN2C(=O)[C@H](Cc2ccc(O)cc2)NC(=O)[C@H](Cc2ccccc2)N(C)C(=O)[C@H](C)NC1=O` [Compound 2, JG002CPB] (cyclo(A[NMeF]YPV)), the pIC50 in assay [1] is 4.27; in assay [3], 3.93.

One may read the pIC50 as the IC50 on a negative log10 scale, so that one unit is a factor of ten. In general, MIC refers to the least concentration at which growth counts as inhibited.

Source of the values: article PMC6780696, “New Peptides from The Marine-Derived Fungi Aspergillus allahabadii and Aspergillus ochraceopetaliformis” (Marine Drugs, 2019).
